Assay results taken from article PMC5812233, “A novel CAV derived cell-penetrating peptide efficiently delivers exogenous molecules through caveolae-mediated endocytosis” (Veterinary Research, 2018).
Entries after “also recorded” stand apart in the source; their conditions may differ. No end group written: not given here. *: point of attachment. FITC = O=C1OC2(c3ccc(O)cc3Oc3cc(O)ccc32)c2ccc(NC(=S)*)cc21

How the values were obtained:
HCT116 cells [1] = assay: Flow cytometry of cellular uptake of FITC-labeled peptides; assay type: cell-based; conditions: for mean percent of relative internalization: 10 000 events, three experiments in triplicate (Figure 3D)
Protocol: The comparison of cell-penetrating efficiency of peptides in HCT116 cells was tested by incubating the cells with CVP1 or TAT peptides. […] The cells were washed twice by centrifugation and finally resuspended in 400 µL PBS for assaying of cellular fluorescent intensity by flow cytometry (BD FACSAria SORP, Becton–Dickinson, USA). A total of 10 000 events were recorded. Data was obtained and analyzed using Flowjo software.

furin = conditions: motif (RKKR and RQRR) in the TAT sequence; cited from earlier work
Description: Generally, CPPs are composed of 5–30 amino acids (aa) with enriched lysine or arginine residues, and divided into three classes including amphipathic CPP, cationic CPP and hydrophobic CPP [2, 3]. […] As the pioneer of CPPs, HIV-TAT with 86 amino acids plays vital roles in the replication of HIV. It wa ...

HCT116 cells [2] = conditions: 5 µM FITC-labeled peptide, 30 min, 37 °C, serum-free medium, confocal microscopy
Protocol: (§1) 293T cells, HCT-116 cells, 3T3 cells, MDCK cells and MSB1 cells were maintained in our laboratory and were grown in Dulbecco’s modified Eagle’s medium supplemented with 10% heated-inactivated fetal bovine serum (FBS) and 1% penicillin–streptomycin solution at 37 °C and 5% CO2.
(§2) Firstly, 2.0 × 10^5 of 293T cells, HCT-116 cells, 3T3 cells or MDCK cells were seeded onto glass cover slides in 24-well plates and cultured for 12 h. The cells were then washed with phosphate buffered saline (PBS) and incubated with 5 µM of FITC-labeled CVP1, TAT and Mut-CVP1 peptides in 500 µL serum-free medium for 30 min. The concentration-dependent intake of CVP1 peptide in HCT-116 cells was then evaluated. In brief, after incubation of cells with FITC-CVP1 peptide for 30 min, cells were washed for three times and stained with Hoechst 33342 (5 µg/mL) for 10 min. Finally, cells were washed three times with PBS and imaged using confocal laser scanning microscope (Leica, TCS SP8 STED and Germany) at 60× magnification.

HCT116 cells [3] = assay: β-galactosidase delivery, X-gal staining; assay type: cell-based; conditions: 20 µM peptide non-covalently complexed with 1 µg β-galactosidase, 1 h + 90 min at 37 °C, phase-contrast microscopy
Protocol: Protein delivery ability of CVP1 was assessed using β-galactosidase enzyme as previously described. In brief, CVP1 and Mut-CVP1 at a concentration of 20 µM were non-covalently complexed with β-galactosidase (1 µL, 1 µg/µL) enzyme respectively. The mixtures were incubated for 30 min at room temperature (RT) for complex formation. The peptide-enzyme complex was added to the HCT116 cells with Opti-MEM media (100 µL) and the cells were incubated for 1 h at 37 °C. After incubation, complete media (150 µL) was added to the cells, and further incubated for 90 min at 37 °C. The cells were washed thoroughly with PBS to remove extracellular peptide-enzyme complex and fixed in PBS containing 1% formaldehyde and 0.2% glutaraldehyde for 15 min at RT. The cells were washed subsequently three times with PBS and stained with X-gal staining buffer (40 mM potassium ferricyanide, 40 mM potassium ferrocyanide, 20 mM magnesium chloride, 2 mg/mL of X-gal in PBS) for 90 min at 37 °C. Finally, the cells were analyzed under a phase-contrast microscope (Olympus) at 200× magnification and imaged.

HCT116 cells [4] = assay: Plasmid (pCDNA3.1-RFP) transfection, fluorescence microscopy and flow cytometry; assay type: cell-based; conditions: 40 µM peptide, 1 µg plasmid DNA; for RFP fluorescence of cells treated with peptide-pCDNA3.1-RFP complex: 48 h post-transfection, fluorescence microscope
Protocol: (§3) The linking of DNA with CVP1 was made by the charge interaction. To confirm the formation of the peptide and plasmid complexes, the CVP1 peptide (5 μM) and plasmid DNA (200 ng) were diluted in 10 µL Opti-MEM and co-incubated at 37 °C for 45 min, and then agarose gel retardation assay was performed as described previously. The transfection experiment was conducted to test the transfection efficiency of CVP1-DNA on HCT116 cells as described previously. Briefly, 1 μg of plasmid DNA and 40 µM of CVP1 peptide or TAT peptide were diluted in 50 µL Opti-MEM, respectively and incubated at RT for 30 min. The lipofectamine 2000 (Invitrogen, USA) was used as a positive control, following the manual provided by the manufacture. […] Meanwhile, the fluorescence intensity was measured by Flow cytometry as described previously.

293T cells = conditions: 5 µM FITC-labeled peptide, 30 min, 37 °C, serum-free medium, confocal microscopy
Protocol: as §1, §2

3T3 cells = conditions: 5 µM FITC-labeled peptide, 30 min, 37 °C, serum-free medium, confocal microscopy
Protocol: as §1, §2

MDCK cells = conditions: 5 µM FITC-labeled peptide, 30 min, 37 °C, serum-free medium, confocal microscopy
Protocol: as §1, §2

HCT116 cells [5] = conditions: up to 40 µM (5, 10, 20, 40 µM), 12, 24 and 48 h (Figure 3C)
Protocol: Effect of CVP1 on the viability of cells was evaluated by MTT assay as described previously.

pCDNA3.1-RFP plasmid = assay: Agarose gel retardation (gel-shift) assay of peptide-plasmid complex; assay type: binding; conditions: 5 µM peptide, 200 ng plasmid DNA, 37 °C 45 min, ethidium bromide
Protocol: as §3

poly (I:C) = assay: Gel retardation electrophoresis of peptide-poly (I:C) complex; assay type: binding; conditions: 10 µM peptide, 5 µg poly (I:C), 45 min 37 °C
HD11 cells = assay: Poly (I:C) delivery, IFN-β mRNA by real-time PCR; assay type: cell-based; conditions: 10 µM peptide, 5 µg poly (I:C), 6 h
Protocol: To analyze the ability of CVP1 to delivery poly(I;C), the CVP1 (10 µM) was first mixed with the poly (I:C) (5 µg) for 45 min at 37 °C for generating the complex. And then, the HD11 cells were incubated with peptide-poly (I:C) complexes, peptide (10 µM) only or poly (I:C) (5 µg) with transfecting reagent. After 6 h of incubation, the cells were collected and total RNA extracted using total RNA purification kit (Axygen, USA). 1 µg of RNA was reverse transcribed into cDNA with a reverse transcription reagent kit (Takara, Japan). The relative mRNA level of IFN-β was detected by Real-time PCR.

HCT116 cells [6] = assay: Cell internalization pathway: endocytosis inhibitors and temperature, flow cytometry; assay type: cell-based
Protocol: The mechanism of uptake of CVP1 in HCT116 cells was investigated by means of physical and chemical inhibition of endocytosis. Incubation of peptide and cells at 37 or 4 °C were treated to measure the influence of temperature on peptide internalization (used as a physical means of inhibition of endocytosis). HCT116 cells cultured in 12-well plates were pretreated for 30 min with inhibitors: 30 µM chlorpromazine (a clathrin-mediated endocytosis inhibitor, which prevents the assembly of clathrin-coated pits at the inner surface of the cell membrane), 5 mM methylated-β-cyclodextrin (a caveolae-mediated endocytosis inhibitor, a cholesterol depletion agent), 10 µM 5-(N-ethyl-N-isopropyl) amilorid (a macropinocytosis inhibitor, which selectively blocks the Na^+/H^+ antiporter) and 50 µM LY294002 (a macropinocytosis inhibitor, a strong phosphatidylinositol-3 kinase inhibitor) as previously described. The cells were further incubated with the peptide for 50 min and then analyzed by flow cytometry. To investigate the effect of incubation time, the HCT116 cells were incubated with CVP1 at 37 °C for different time periods.

[7] = HCT116 cells, 0.1 µM FITC-labeled peptide, flow cytometry after trypsin 5 min to remove non-internalized peptide
[8] = HCT116 cells, 1 µM FITC-labeled peptide, flow cytometry after trypsin 5 min
[9] = HCT116 cells, 2 µM FITC-labeled peptide, flow cytometry after trypsin 5 min
[10] = HCT116 cells, 5 µM FITC-labeled peptide, flow cytometry after trypsin 5 min
[11] = HCT116 cells, 10 µM FITC-labeled peptide, flow cytometry after trypsin 5 min

## FITC-YGRKKRRQRRR [TAT, reference compound]
HCT116 cells [1]; [7]
  mean percent of relative internalization: 0.1%
HCT116 cells [1]; [8]
  mean percent of relative internalization: 0.4%
HCT116 cells [1]; [9]
  mean percent of relative internalization: 1.7%
HCT116 cells [1]; [10]
  mean percent of relative internalization: 25%
HCT116 cells [1]; [11]
  mean percent of relative internalization: 61%
furin
  stability toward furin: cleaved by furin

## {FITC}-MAAGAGAPAGAFYAFGAGA [Mut-CVP1]
HCT116 cells [1]; HCT116 cells, FITC-labeled peptide, confocal imaging and flow cytometry
  cell-penetrating activity (overall): did not show any cell-penetrating activity
HCT116 cells [2]
  specific green fluorescence dots in cells (internalization): not
HCT116 cells [3]
  X-gal staining of cells treated with peptide-β-galactosidase complex: very weak blue background
HCT116 cells [4]
  RFP fluorescence of cells treated with peptide-pCDNA3.1-RFP complex: no fluorescence

## {FITC}-MARRARRPRGRFYAFRRGR [CVP1, N terminus (aa 1–19) of VP1 from chicken anemia virus, FITC-labeled cell-penetrating peptide]
HCT116 cells [1]; [7]
  mean percent of relative internalization: 0.1%
HCT116 cells [1]; [8]
  mean percent of relative internalization: 2.1%
HCT116 cells [1]; [9]
  mean percent of relative internalization: 18.7%
HCT116 cells [1]; [10]
  mean percent of relative internalization: 86%
HCT116 cells [1]; HCT116 cells, 5 µM peptide, 5, 10, 15, 20, 25, 30 min, flow cytometry (Figure 3B)
  intensity of fluorescence in cells versus incubation time: increased as the incubation time was increased from 5 to 30 min
HCT116 cells [1]; [11]
  mean percent of relative internalization: 98%
HCT116 cells [1]; HCT116 cells, 1, 2, 5, 10, 20, 40 µM, 30 min, 37 °C, flow cytometry (Figure 3A)
  cell-penetrating efficiency versus concentration: dose-dependent
293T cells
  specific green fluorescence dots in cells (internalization): clearly observed
3T3 cells
  specific green fluorescence dots in cells (internalization): clearly observed
HCT116 cells [2]
  specific green fluorescence dots in cells (internalization): clearly observed
MDCK cells
  specific green fluorescence dots in cells (internalization): clearly observed
HCT116 cells [5]
  toxicity to cells (cell viability, MTT): non-toxic
HCT116 cells [3]
  X-gal staining of cells treated with peptide-β-galactosidase complex: strong blue color
pCDNA3.1-RFP plasmid
  migration of plasmid conjugated with peptide (DNA binding capacity): much lower migration speed than naked plasmid
HCT116 cells [4]; 48 h, flow cytometry, comparators TAT peptide, lipofectamine 2000
  efficacy of delivering plasmid, comparison with other carriers: significantly higher signal of fluorescence than the TAT/RFP sample; also recorded: not as equal as commercial transfection reagents
HCT116 cells [4]
  RFP fluorescence of cells treated with peptide-pCDNA3.1-RFP complex: strong fluorescence
Poly (I:C)
  complex formation with poly (I:C): could conjugate with the poly (I:C) to form a complex
HD11 cells; IFN-β mRNA by real-time PCR, comparators TAT, transfection reagent
  capacity of delivering poly (I:C), comparison with other carriers: higher than the TAT; also recorded: not as equal as commercial transfection reagents
HD11 cells; real-time PCR
  IFN-β mRNA expression of cells treated with peptide/poly (I:C) complexes versus naked peptide or poly (I:C) only: significantly increased
HCT116 cells [6]; HCT116 cells pretreated 30 min with 10 µM 5-(N-ethyl-N-isopropyl) amiloride (macropinocytosis inhibitor), then peptide 50 min
  effect of EIPA on cellular intake of the peptide: unable to inhibit
HCT116 cells [6]; HCT116 cells pretreated 30 min with 30 µM chlorpromazine (clathrin-mediated endocytosis inhibitor), then peptide 50 min
  effect of CPZ on cellular intake of the peptide: unable to inhibit
HCT116 cells [6]; HCT116 cells pretreated 30 min with 50 µM LY294002 (macropinocytosis inhibitor), then peptide 50 min
  effect of LY294002 on cellular intake of the peptide: only slightly blocked
HCT116 cells [6]; HCT116 cells pretreated 30 min with 5 mM methylated-β-cyclodextrin (caveolae-mediated endocytosis inhibitor), then peptide 50 min
  effect of MβCD on cellular intake of the peptide: significantly reduced
HCT116 cells [6]; HCT116 cells, 10 µM peptide, 4 °C compared with 37 °C
  cell-penetrating activity at 4 °C: efficiently inhibited
